Literature values as cited in patent US20130059872A1, “POLYMORPHS OF ALOGLIPTIN BENZOATE” (MAPI PHARMA LIMITED, priority 2010, published 2013).

Conditions: DSC data according to WO 2007/035372; recrystallization at 132° C., melt onset at 183° C.

Cn1c(=O)cc(N2CCC[C@@H](N)C2)n(Cc2ccccc2C#N)c1=O [amorphous form 1 of WO 2007/035372, alogliptin benzoate]
solid-state stability of the amorphous phase on heating: crystallized to crystalline form A during heating
